From ChEMBL document CHEMBL2016543, “New tacrine-4-oxo-4H-chromene hybrids as multifunctional agents for the treatment of Alzheimer's disease, with cholinergic, antioxidant, and β-amyloid-reducing properties” (J Med Chem, 2012)
Activity calls are given as the source filed them. The rule behind the calls is not given here. Starred links: 1 amine or outer side, 2 acyl side, 3 side chain; linkers in the order of their positions; H or OH if unused. Non-standard residues stand in square brackets, D forms with d. Residues, ends and D or L forms follow the SMILES beside them. LeuΨ(S-CHOHCH2)Ala = CC(C)C[C@H](N[*:1])[C@@H](O)C[C@@H](C)C(=O)[*:2]

What was measured:
Cholinesterase [1] = molecular target: T1, Cholinesterase (Homo sapiens, UniProt P06276)
Description: Inhibition of human serum BChE by Ellman's method

Acetylcholinesterase [2] = molecular target: T2, Acetylcholinesterase (Bos taurus, UniProt P23795)
T2 sequence (P23795 whole entry): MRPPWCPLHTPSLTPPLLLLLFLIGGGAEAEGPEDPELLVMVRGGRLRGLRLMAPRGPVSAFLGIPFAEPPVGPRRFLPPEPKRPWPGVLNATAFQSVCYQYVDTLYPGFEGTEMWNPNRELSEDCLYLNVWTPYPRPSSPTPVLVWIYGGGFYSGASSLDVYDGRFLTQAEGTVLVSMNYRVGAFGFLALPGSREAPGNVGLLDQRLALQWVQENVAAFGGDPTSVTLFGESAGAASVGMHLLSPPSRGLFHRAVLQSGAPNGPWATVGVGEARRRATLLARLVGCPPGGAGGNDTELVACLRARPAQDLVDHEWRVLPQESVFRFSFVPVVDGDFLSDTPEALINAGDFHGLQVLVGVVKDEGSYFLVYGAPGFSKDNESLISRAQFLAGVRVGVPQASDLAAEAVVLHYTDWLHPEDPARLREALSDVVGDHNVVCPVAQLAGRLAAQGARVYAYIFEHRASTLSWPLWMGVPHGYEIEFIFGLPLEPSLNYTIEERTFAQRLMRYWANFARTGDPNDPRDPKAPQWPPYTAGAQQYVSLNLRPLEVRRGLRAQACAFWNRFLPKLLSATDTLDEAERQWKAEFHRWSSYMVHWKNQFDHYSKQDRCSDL
Description: (§1) Inhibition of bovine erythrocytes AChE by Ellman's method

in vitro = settings: PAMPA, pH 7.4
Description: Permeability of the compound in phosphate buffer at pH 7.4 by PAMPA

Cholinesterase [3] = molecular target: Cholinesterase (Equus caballus, UniProt P81908)
Description: (§2) Inhibition of horse serum BChE by Ellman's method

Acetylcholinesterase [4] = molecular target: Acetylcholinesterase (Homo sapiens, UniProt P22303)
Description: Inhibition of human erythrocytes AChE by Ellman's method

Beta-secretase 1 [5] = molecular target: T3, Beta-secretase 1 (Homo sapiens, UniProt P56817)
Description: Inhibition of human recombinant BChE using panvera peptide as substrate preincubated for 60 mins before substrate addition by FRET assay

Beta-secretase 1 [6] = molecular target: T3, Beta-secretase 1; assay: Competitive inhibition of human recombinant […] using panvera peptide as substrate preincubated for 60 mins before substrate addition by FRET assay
[7] = molecular target: Cholinesterase (Equus caballus) (UniProt P81908)
Description: as §2

[8] = molecular target: T4, Acetylcholinesterase (Bos taurus) (UniProt P23795)
T4 sequence (whole entry): T2 sequence (P23795 whole entry)
Description: as §1

Cholinesterase [9] = molecular target: T1, Cholinesterase; assay: Ratio of tacrine IC50 to compound IC50 for human serum BChE

Sequence of Cholinesterase (Equus caballus, UniProt P81908) (P81908 whole entry): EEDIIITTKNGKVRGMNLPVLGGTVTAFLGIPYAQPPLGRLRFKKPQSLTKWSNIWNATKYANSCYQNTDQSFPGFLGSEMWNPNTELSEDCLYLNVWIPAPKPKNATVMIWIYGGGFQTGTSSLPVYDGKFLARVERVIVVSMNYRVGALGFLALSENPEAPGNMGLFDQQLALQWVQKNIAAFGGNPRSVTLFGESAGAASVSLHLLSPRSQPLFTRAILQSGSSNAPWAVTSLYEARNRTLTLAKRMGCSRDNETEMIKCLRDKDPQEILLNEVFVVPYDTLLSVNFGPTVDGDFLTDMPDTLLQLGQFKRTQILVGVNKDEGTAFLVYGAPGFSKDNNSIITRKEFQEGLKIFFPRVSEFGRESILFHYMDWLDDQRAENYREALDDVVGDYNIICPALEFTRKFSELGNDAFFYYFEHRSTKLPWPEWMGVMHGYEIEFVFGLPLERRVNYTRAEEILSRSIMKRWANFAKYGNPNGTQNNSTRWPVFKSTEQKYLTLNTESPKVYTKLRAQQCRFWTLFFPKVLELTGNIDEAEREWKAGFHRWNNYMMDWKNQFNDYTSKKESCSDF
T1 sequence (P06276 whole entry): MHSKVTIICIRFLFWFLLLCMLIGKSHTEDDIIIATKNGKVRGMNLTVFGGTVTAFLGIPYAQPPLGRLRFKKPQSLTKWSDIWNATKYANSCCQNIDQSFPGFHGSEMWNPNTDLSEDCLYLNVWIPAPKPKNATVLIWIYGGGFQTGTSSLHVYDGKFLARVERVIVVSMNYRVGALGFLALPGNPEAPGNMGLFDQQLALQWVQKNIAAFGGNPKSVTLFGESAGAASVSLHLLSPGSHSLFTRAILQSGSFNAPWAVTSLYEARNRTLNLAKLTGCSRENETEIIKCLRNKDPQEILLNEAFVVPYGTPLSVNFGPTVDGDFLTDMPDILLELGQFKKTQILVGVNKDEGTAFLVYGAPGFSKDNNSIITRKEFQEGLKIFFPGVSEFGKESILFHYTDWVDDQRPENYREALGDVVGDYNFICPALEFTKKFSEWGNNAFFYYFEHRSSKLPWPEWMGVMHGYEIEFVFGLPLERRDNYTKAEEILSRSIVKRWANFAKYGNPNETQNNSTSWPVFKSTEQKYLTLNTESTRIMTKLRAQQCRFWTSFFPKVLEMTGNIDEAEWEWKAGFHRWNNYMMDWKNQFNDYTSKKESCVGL
T3 sequence (P56817 whole entry): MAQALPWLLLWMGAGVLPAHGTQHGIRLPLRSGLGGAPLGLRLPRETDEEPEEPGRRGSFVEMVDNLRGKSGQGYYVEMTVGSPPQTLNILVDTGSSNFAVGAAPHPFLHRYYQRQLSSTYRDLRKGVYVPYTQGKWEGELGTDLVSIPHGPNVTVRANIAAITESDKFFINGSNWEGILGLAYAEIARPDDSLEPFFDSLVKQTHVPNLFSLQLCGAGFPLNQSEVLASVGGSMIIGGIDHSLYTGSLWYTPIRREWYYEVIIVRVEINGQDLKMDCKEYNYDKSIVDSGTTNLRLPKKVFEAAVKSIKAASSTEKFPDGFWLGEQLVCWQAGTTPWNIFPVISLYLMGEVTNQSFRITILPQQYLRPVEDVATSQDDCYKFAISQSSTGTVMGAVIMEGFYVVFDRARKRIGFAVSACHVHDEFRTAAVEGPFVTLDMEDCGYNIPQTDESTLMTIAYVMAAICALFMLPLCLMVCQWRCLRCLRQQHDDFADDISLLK
Sequence of Acetylcholinesterase (Homo sapiens, UniProt P22303) (P22303 whole entry): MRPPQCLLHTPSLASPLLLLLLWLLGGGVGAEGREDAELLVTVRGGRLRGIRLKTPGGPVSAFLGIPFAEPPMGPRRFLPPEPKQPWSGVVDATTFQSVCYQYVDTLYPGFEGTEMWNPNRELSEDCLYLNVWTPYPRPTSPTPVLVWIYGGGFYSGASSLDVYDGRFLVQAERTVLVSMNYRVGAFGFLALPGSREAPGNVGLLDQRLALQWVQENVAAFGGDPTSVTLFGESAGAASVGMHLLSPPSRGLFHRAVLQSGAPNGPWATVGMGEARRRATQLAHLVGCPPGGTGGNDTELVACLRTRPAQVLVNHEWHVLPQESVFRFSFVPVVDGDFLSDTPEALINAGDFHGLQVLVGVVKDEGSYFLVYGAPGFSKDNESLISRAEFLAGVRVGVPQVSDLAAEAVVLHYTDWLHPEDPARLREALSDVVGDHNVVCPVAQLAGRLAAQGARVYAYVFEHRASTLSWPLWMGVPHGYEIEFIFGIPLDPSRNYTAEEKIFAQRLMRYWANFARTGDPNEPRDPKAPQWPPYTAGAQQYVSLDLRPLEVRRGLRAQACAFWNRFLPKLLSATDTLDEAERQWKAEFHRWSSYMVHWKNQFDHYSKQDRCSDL
Sequence of Cholinesterase (Equus caballus) (P81908 whole entry): as the sequence (P81908 whole entry) above

SMILES	IC50 (Cholinesterase [1])	IC50 (Acetylcholinesterase [2])	Papp (in vitro)	IC50 (Cholinesterase [3])	IC50 (Acetylcholinesterase [4])	IC50 (Beta-secretase 1 [5])	Kic (Beta-secretase 1 [6])	inhibition [7]	inhibition [8]	Ratio IC50 (Cholinesterase [9])
Cl.O=C(NCCCCCCCCCCNc1c2c(nc3ccccc13)CCCC2)c1cc(=O)c2cc(O)c(O)cc2o1	30 nM	300 nM	6.3 ×10⁻⁶ cm/s	8 nM	6.5 nM					
COc1cc(O)c2c(=O)cc(C(=O)NCCCCCCCCCCNc3c4c(nc5ccccc35)CCCC4)oc2c1.Cl	1 nM	250 nM	10.6 ×10⁻⁶ cm/s	2 nM	1 nM	2900 nM	0.85 µM			
O=C(O)c1cc(=O)c2ccccc2o1								inactive	inactive	
O=C(NCCCCCCCCCNc1c2c(nc3ccccc13)CCCC2)c1cc(=O)c2ccccc2o1		125 nM		0.58 nM						
O=C(NCCCCCCCCCCNc1c2c(nc3cc(Cl)cc(Cl)c13)CCCC2)c1cc(=O)c2cc(O)ccc2o1		350 nM		17.5 nM						
Cl.O=C(NCCCCCCCCCCNc1c2c(nc3cc(Cl)ccc13)CCCC2)c1cc(=O)c2ccccc2o1	0.08 nM	5 nM	7.1 ×10⁻⁶ cm/s	0.18 nM	0.3 nM	22400 nM	6.58 µM			
Cl.O=C(NCCCCCCCCCCNc1c2c(nc3ccccc13)CCCC2)c1cc(=O)c2ccccc2o1	0.15 nM	75 nM	9.1 ×10⁻⁶ cm/s	0.18 nM	17.5 nM					
O=C(NCCCCCCCCCCNc1c2c(nc3cc(Cl)cc(Cl)c13)CCCC2)c1cc(=O)c2cc(O)c(O)cc2o1		90 nM		88 nM						
O=C(NCCCCCCCCCCCCNc1c2c(nc3ccccc13)CCCC2)c1cc(=O)c2ccccc2o1		150 nM		0.25 nM						
CC(C)C[C@H](NC(=O)[C@H](CC(N)=O)NC(=O)[C@@H](NC(=O)[C@@H](N)CC(=O)O)C(C)C)[C@@H](O)C[C@@H](C)C(=O)N[C@@H](C)C(=O)N[C@@H](CC(=O)O)C(=O)N[C@@H](Cc1ccccc1)C(=O)O (H-DVN[LeuΨ(S-CHOHCH2)Ala]ADF-OH)						33 nM	0.0097 µM			
COc1ccc2oc(C(=O)NCCCCCCCCCCNc3c4c(nc5cc(Cl)ccc35)CCCC4)cc(=O)c2c1.Cl	0.1 nM	5 nM	7.5 ×10⁻⁶ cm/s	0.425 nM	0.1 nM	14400 nM	4.23 µM			
COc1cc(OC)c2c(=O)cc(C(=O)NCCCCCCCCCCNc3c4c(nc5cc(Cl)ccc35)CCCC4)oc2c1.Cl	0.1 nM	50 nM	10.7 ×10⁻⁶ cm/s	1 nM	0.35 nM					
Cl.O=C(NCCCCCCCCCCNc1c2c(nc3cc(Cl)ccc13)CCCC2)c1cc(=O)c2cc(O)c(O)cc2o1	95 nM	17.5 nM	5.3 ×10⁻⁶ cm/s	28 nM	0.09 nM	13600 nM	3.99 µM			
Cl.O=C(NCCCCCCCCCCNc1c2c(nc3cc(Cl)ccc13)CCCC2)c1cc(=O)c2cc(O)ccc2o1	1.5 nM	80 nM	11.5 ×10⁻⁶ cm/s	3.5 nM	1 nM					
COc1cc2oc(C(=O)NCCCCCCCCCCNc3c4c(nc5cc(Cl)ccc35)CCCC4)cc(=O)c2cc1OC.Cl	50 nM	6.5 nM	7.4 ×10⁻⁶ cm/s	0.85 nM	0.2 nM					
O=C(NCCCCCCCCCCNc1c2c(nc3cc(Cl)cc(Cl)c13)CCCC2)c1cc(=O)c2c(O)cc(O)cc2o1		75 nM		35 nM						

SMILES	IC50 (Cholinesterase [1])	IC50 (Acetylcholinesterase [2])	Papp (in vitro)	IC50 (Cholinesterase [3])	IC50 (Acetylcholinesterase [4])	IC50 (Beta-secretase 1 [5])	Kic (Beta-secretase 1 [6])	inhibition [7]	inhibition [8]	Ratio IC50 (Cholinesterase [9])
COc1cc(OC)c2c(=O)cc(C(=O)NCCCCCCCCCCNc3c4c(nc5ccccc35)CCCC4)oc2c1.Cl	0.1 nM	100 nM	14.7 ×10⁻⁶ cm/s	0.325 nM	2.3 nM	2100 nM	0.62 µM			
O=C(NCCCCCCCCNc1c2c(nc3ccccc13)CCCC2)c1cc(=O)c2ccccc2o1		150 nM		0.5 nM						
COc1ccc2oc(C(=O)NCCCCCCCCCCNc3c4c(nc5ccccc35)CCCC4)cc(=O)c2c1.Cl	0.038 nM	35 nM	14.9 ×10⁻⁶ cm/s	0.324 nM	0.775 nM					1050
COc1cc(OC)c2c(=O)cc(C(=O)NCCCCCCCCCCNc3c4c(nc5cc(Cl)cc(Cl)c35)CCCC4)oc2c1		150 nM		0.75 nM						
Cl.O=C(NCCCCCCCCCCNc1c2c(nc3ccccc13)CCCC2)c1cc(=O)c2c(O)cc(O)cc2o1	0.8 nM	500 nM	13.1 ×10⁻⁶ cm/s	0.35 nM	2.3 nM	3600 nM	1.06 µM			
COc1cc(O)c2c(=O)cc(C(=O)NCCCCCCCCCCNc3c4c(nc5cc(Cl)ccc35)CCCC4)oc2c1.Cl	5 nM	38 nM	8.7 ×10⁻⁶ cm/s	0.175 nM	0.035 nM					
COc1cc2oc(C(=O)NCCCCCCCCCCNc3c4c(nc5ccccc35)CCCC4)cc(=O)c2cc1OC.Cl	15 nM	85 nM	15 ×10⁻⁶ cm/s	0.55 nM	1.8 nM	3000 nM	0.88 µM			
O=C(NCCCCCCCCCCNc1c2c(nc3cc(Cl)cc(Cl)c13)CCCC2)c1cc(=O)c2ccccc2o1		1000 nM		100 nM						
COc1cc2oc(C(=O)NCCCCCCCCCCNc3c4c(nc5cc(Cl)cc(Cl)c35)CCCC4)cc(=O)c2cc1OC		175 nM		100 nM						
O=C(NCCCCCCCNc1c2c(nc3ccccc13)CCCC2)c1cc(=O)c2ccccc2o1		100 nM		1.75 nM						
O=c1cc(-c2ccc(O)cc2)oc2cc(O)cc(O)c12 [APIGENIN]						38500 nM	11.3 µM			
COc1cc(O)c2c(=O)cc(C(=O)NCCCCCCCCCCNc3c4c(nc5cc(Cl)cc(Cl)c35)CCCC4)oc2c1		80 nM		35 nM						
COc1ccc2oc(C(=O)NCCCCCCCCCCNc3c4c(nc5cc(Cl)cc(Cl)c35)CCCC4)cc(=O)c2c1		550 nM		7.5 nM						
Cl.O=C(NCCCCCCCCCCNc1c2c(nc3cc(Cl)ccc13)CCCC2)c1cc(=O)c2c(O)cc(O)cc2o1	2.5 nM	10 nM	7.8 ×10⁻⁶ cm/s	3 nM	0.065 nM					
Cl.O=C(NCCCCCCCCCCNc1c2c(nc3ccccc13)CCCC2)c1cc(=O)c2cc(O)ccc2o1	1.5 nM	75 nM	23.1 ×10⁻⁶ cm/s	1 nM	8 nM	2800 nM	0.82 µM			
